Measured values as given in US10688093B2, “Methods, compositions, and uses of novel Fyn kinase inhibitors” (priority 2015, dated 2020).

Biological target: full-length recombinant human FYN A (Homo sapiens (Human), UniProt P06241)
Assay: ADP-Glo Kinase Assay of FYN kinase inhibition
Assay type: biochemical
Conditions: primary screen, initial compounds
Method in brief: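 ADP-Glo read-out of peptide phosphorylation after 90 min RT with 12.5 pmol ATP and 100 pg 12-mer substrate. Enzyme was N-GST full-length human FYN A from insect cells, 3 pg, pre-incubated 30 min with compound, 10 points from 10 μM top, 3-fold steps; IC50 from curve.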

Chain of full-length recombinant human FYN A (P06241 whole entry): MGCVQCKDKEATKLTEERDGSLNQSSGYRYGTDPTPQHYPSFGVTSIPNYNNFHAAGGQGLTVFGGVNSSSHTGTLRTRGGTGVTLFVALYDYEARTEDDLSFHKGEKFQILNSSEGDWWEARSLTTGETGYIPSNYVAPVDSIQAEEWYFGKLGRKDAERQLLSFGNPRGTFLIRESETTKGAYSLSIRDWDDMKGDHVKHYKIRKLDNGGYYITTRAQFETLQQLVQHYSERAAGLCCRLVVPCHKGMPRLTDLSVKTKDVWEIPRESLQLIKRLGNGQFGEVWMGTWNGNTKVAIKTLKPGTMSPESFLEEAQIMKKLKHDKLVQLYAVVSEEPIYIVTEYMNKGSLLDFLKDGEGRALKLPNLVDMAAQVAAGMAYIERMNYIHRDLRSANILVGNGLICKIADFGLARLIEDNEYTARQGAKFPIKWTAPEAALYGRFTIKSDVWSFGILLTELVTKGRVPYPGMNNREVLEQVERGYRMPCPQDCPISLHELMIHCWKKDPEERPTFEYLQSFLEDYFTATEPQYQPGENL

IC50 [µM]	SMILES
1.81	Oc1cccc(-c2ccc3ncc(-c4cccnc4)n3n2)c1 [Compound 440, 3-[3-(3-pyridyl)imidazo [1,2-b]pyridazin-6-yl]phenol]
0.211	COc1ccc(-c2cnc3ccc(-c4cccs4)nn23)cc1OC [Compound 441, 3-(3,4-dimethoxy-phenyl)-6-(2-thienyl)imidazo [1,2-b]pyridazine]
0.987	Oc1cccc(-c2ccc3ncc(-c4cccc(O)c4)n3n2)c1 [Compound 442, 3-[3-(3-hydroxyphenyl)imidazo[1,2-b]pyridazin-6-yl]phenol]
2.24	CC(=O)Nc1cccc(-c2ccc3ncc(-c4ccc(CO)cc4)n3n2)c1 [Compound 443, N-[3-[3-[4-(hydroxymethyl)phenyl]imidazo [1,2-b]pyridazin-6-yl]phenyl] acetamide]
4.81	CC(=O)c1cccc(-c2cnc3ccc(-c4ccc(F)cc4)nn23)c1 [Compound 444, 1-[3-[6-(4-fluorophenyl)imidazo[1,2-b]pyridazin-3-yl]phenyl] ethanone]
1.33	CNC(=O)c1cccc(-c2ccc3ncc(-c4cccc(NC(C)=O)c4)n3n2)c1 [Compound 445, 3-[3-(3-acetamido-phenyl)imidazo [1,2-b]pyridazin-6-yl]-N-methyl-benzamide]
14.9	CNc1cncc(-c2ccc3[nH]ccc3c2)n1 [Compound 445_0204, 6-(1H-indol-5-yl)-N-methyl-pyrazin-2-amine]
1.93	OCc1cccc(-c2ccc3ncc(-c4ccccc4)n3n2)c1 [Compound 446, [3-(3-phenylimidazo [1,2-b]pyridazin-6-yl)phenyl] methanol]
30	Cn1cc(-c2ccc3ncc(-c4ccncc4)n3n2)cn1 [Compound 447, 6-(1-methylpyrazol-4-yl)-3-(4-pyridyl)imidazo [1,2-b]pyridazine]
3.93	CN(C)CCNC(=O)c1cccc(-c2ccc3ncc(-c4cccc(OC(F)(F)F)c4)n3n2)c1 [Compound 448, N-(2-dimethylamino-ethyl)-3-[3-[3-(trifluoromethoxy)phenyl]imidazo [1,2-b]pyridazin-6-yl]benzamide]
1.04	OCc1ccc(-c2ccc3ncc(-c4ccc(CO)cc4)n3n2)cc1 [Compound 449, [4-[3-[4-(hydroxymethyl)phenyl]imidazo [1,2-b]pyridazin-6-yl]phenyl] methanol]
0.2	COc1cc(-c2cnc3ccc(-c4ccc5c(c4)OCO5)nn23)ccc1O [Compound 450, 4-[6-(1,3-benzodioxol-5-yl)imidazo[1,2-b]pyridazin-3-yl]-2-methoxy-phenol]
0.416	CC(=O)c1cccc(-c2cnc3ccc(-c4cccs4)nn23)c1 [Compound 451, 1-[3-[6-(2-thienyl)imidazo [1,2-b]pyridazin-3-yl]phenyl] ethanone]
2.86	COc1cncc(-c2ccc3ncc(-c4cccs4)n3n2)c1 [Compound 452, 6-(5-methoxy-3-pyridyl)-3-(2-thienyl)imidazo [1,2-b]pyridazine]
4.89	c1csc(-c2ccc3ncc(-c4cccs4)n3n2)c1 [Compound 453, 3,6-bis(2-thienyl)imidazo [1,2-b]pyridazine]
1.76	CN(C)CCNC(=O)c1cccc(-c2cnc3ccc(-c4cnn(C)c4)nn23)c1 [Compound 454, N-(2-dimethyl-aminoethyl)-3-[6-(1-methyl-pyrazol-4-yl)imidazo[1,2-b]pyridazin-3-yl]benzamide]
2.02	CN(C)CCNC(=O)c1cccc(-c2cnc3ccc(-c4ccc5c(c4)OCO5)nn23)c1 [Compound 455, 3-[6-(1,3-benzodioxol-5-yl)imidazo[1,2-b]pyridazin-3-yl]-N-(2-dimethylamino-ethyl)benzamide]
4.15	CN(C)CCNC(=O)c1cccc(-c2cnc3ccc(-c4cccc(C(N)=O)c4)nn23)c1 [Compound 456, 3-[3-[3-(2-dimethylamino-ethylcarbamoyl)phenyl]imidazo [1,2-b]pyridazin-6-yl]benzamide]
0.352	O=C(NCCO)c1cccc(-c2ccc3ncc(-c4cccc(O)c4)n3n2)c1 [Compound 457, N-(2-hydroxyethyl)-3-[3-(3-hydroxyphenyl)imidazo[1,2-b]pyridazin-6-yl]benzamide]
1.81	COc1cc(-c2cnc3ccc(-c4cc(OC)c(OC)c(OC)c4)nn23)ccc1O [Compound 458, 2-methoxy-4-[6-(3,4,5-trimethoxyphenyl)imidazo[1,2-b]pyridazin-3-yl]phenol]
7.33	OCc1cccc(-c2ccc3ncc(-c4ccoc4)n3n2)c1 [Compound 459, [3-[3-(3-furyl)imidazo[1,2-b]pyridazin-6-yl]phenyl] methanol]
0.711	NC(=O)c1ccc(-c2cnc3ccc(Cc4ccccc4)nn23)cc1 [Compound 460, 4-(6-benzylimidazo [1,2-b]pyridazin-3-yl)benzamide]

IC50 [µM]	SMILES
0.983	CC(=O)Nc1ccc(-c2ccc3ncc(-c4cccc(C(=O)NCCN(C)C)c4)n3n2)cc1 [Compound 461, 3-[6-(4-acetamidophenyl)imidazo[1,2-b]pyridazin-3-yl]-N-(2-dimethylamino-ethyl)benzamide]
0.835	COc1cc(-c2cnc3ccc(-c4cccc(OC(F)(F)F)c4)nn23)ccc1O [Compound 462, 2-methoxy-4-[6-[3-(trifluoro-methoxy)phenyl]imidazo[1,2-b]pyridazin-3-yl]phenol]
0.816	CN(C)CCNC(=O)c1cccc(-c2cnc3ccc(-c4cccc(CO)c4)nn23)c1 [Compound 463, N-(2-dimethylamino-ethyl)-3-[6-[3-(hydroxymethyl)phenyl]imidazo [1,2-b]pyridazin-3-yl]benzamide]
3.07	NC(=O)c1ccc(-c2cnc3ccc(Cc4ccc(F)c(F)c4)nn23)cc1 [Compound 464, 4-[6-[(3,4-difluorophenyl)methyl]imidazo [1,2-b]pyridazin-3-yl]benzamide]
3.17	CC(=O)Nc1cccc(-c2ccc3ncc(-c4cccc(C(=O)NCCN(C)C)c4)n3n2)c1 [Compound 465, 3-[6-(3-acetamidophenyl)imidazo[1,2-b]pyridazin-3-yl]-N-(2-dimethylamino-ethyl)benzamide]
1.08	COc1cc(-c2cnc3ccc(-c4cccc(C(F)(F)F)c4)nn23)ccc1O [Compound 466, 2-methoxy-4-[6-[3-(trifluoro-methyl)phenyl]imidazo[1,2-b]pyridazin-3-yl]phenol]
2.67	COc1cncc(-c2cnc3ccc(Cc4ccccc4)nn23)c1 [Compound 467, 6-benzyl-3-(5-methoxy-3-pyridyl)imidazo [1,2-b]pyridazine]
3.1	Cc1cccc(Cc2ccc3ncc(-c4ccc(C(N)=O)cc4)n3n2)c1 [Compound 468, 4-[6-(m-tolylmethyl)imidazo[1,2-b]pyridazin-3-yl]benzamide]
2.14	COc1ccccc1-c1ccc2ncc(-c3cccc(C(=O)NCCN(C)C)c3)n2n1 [Compound 469, N-(2-dimethylamino-ethyl)-3-[6-(2-methoxyphenyl)imidazo[1,2-b]pyridazin-3-yl]benzamide]
19.2	CN(C)CCNC(=O)c1cccc(-c2cnc3ccc(-c4cccc(Oc5ccccc5)c4)nn23)c1 [Compound 470, N-(2-dimethylamino-ethyl)-3-[6-(3-phenoxyphenyl)imidazo[1,2-b]pyridazin-3-yl]benzamide]
1.89	Oc1cccc(-c2cnc3ccc(C4CC4)nn23)c1 [Compound 471, 3-(6-cyclo-propylimidazo[1,2-b]pyridazin-3-yl)phenol]
0.281	COc1cc(-c2cnc3ccc(-c4cccc(F)c4)nn23)ccc1O [Compound 472, 4-[6-(3-fluoro-phenyl)imidazo [1,2-b]pyridazin-3-yl]-2-methoxy-phenol]
4.42	COc1cncc(-c2cnc3ccc(Cc4ccc(F)cc4)nn23)c1 [Compound 473, 6-[(4-fluoro-phenyl)methyl]-3-(5-methoxy-3-pyridyl)imidazo [1,2-b]pyridazine]
2.14	O=C(NCCO)c1cccc(-c2ccc3ncc(-c4ccc(CO)cc4)n3n2)c1 [Compound 475, N-(2-hydroxyethyl)-3-[3-[4-(hydroxymethyl)phenyl]imidazo [1,2-b]pyridazin-6-yl]benzamide]
0.223	COc1cc(-c2cnc3ccc(-c4cccc(C(N)=O)c4)nn23)ccc1O [Compound 476, 3-[3-(4-hydroxy-3-methoxy-phenyl)imidazo [1,2-b]pyridazin-6-yl]benzamide]
1.8	Cc1cccc(Cc2ccc3ncc(-c4cnn(C)c4)n3n2)c1 [Compound 477, 3-(1-methylpyrazol-4-yl)-6-(m-tolylmethyl) imidazo[1,2-b]pyridazine]
0.629	CC(=O)c1cccc(-c2cnc3ccc(-c4cccc(C(=O)NCCO)c4)nn23)c1 [Compound 478, 3-[3-(3-acetylphenyl)imidazo[1,2-b]pyridazin-6-yl]-N-(2-hydroxyethyl) benzamide]
3.23	OCc1ccc(-c2cnc3ccc(Cc4ccccc4)nn23)cc1 [Compound 479, [4-(6-benzylimidazo [1,2-b]pyridazin-3-yl)phenyl] methanol]
2.09	COc1cc(-c2cnc3ccc(Cc4ccc(F)cc4)nn23)ccc1O [Compound 480, 4-[6-[(4-fluorophenyl)methyl]imidazo [1,2-b]pyridazin-3-yl]-2-methoxy-phenol]
30	O=C(NCCO)c1cccc(-c2ccc3ncc(-c4cccc(Cl)c4)n3n2)c1 [Compound 483, 3-[3-(3-chlorophenyl)imidazo[1,2-b]pyridazin-6-yl]-N-(2-hydroxyethyl) benzamide]
2.17	Cc1cccc(Cc2ccc3ncc(-c4cccc(C(N)=O)c4)n3n2)c1 [Compound 484, 3-[6-(m-tolylmethyl)imidazo[1,2-b]pyridazin-3-yl]benzamide]

SMILES	IC50 [µM]
Cn1cc(-c2cnc3ccc(Cc4ccc(F)cc4)nn23)cn1 [Compound 481, 6-[(4-fluorophenyl)methyl]-3-(1-methylpyrazol-4-yl)imidazo [1,2-b]pyridazine]	1.3
